pIC50: −log10 of the molar value.
What was measured:
Assay type in all cases: cell-based
prolyl hydroxylase = assay: Prolyl hydroxylase activity in extracts of treated human skin fibroblasts (Example 1, tritium-release assay); conditions: cultured fibroblasts, 72 h, Example 1
Description: (§1) Cultures of human skin fibroblasts grown to confluence were incubated for 72 h in medium supplemented with 1% ethanol containing various concentrations of minoxidil or deoxyminoxidil as indicated. Cells were then harvested, and the enzyme activities in extracts of these cells were measured by tritium-release assays (Murad and Pinnell, J. Biol. Chem. 262:11,973 (1987)). The results are expressed as percentages of zero-concentration values.
as §1, with “with 1% acetone containing various concentrations of minoxidil sulfate,” for “deoxyminoxidil”, “tritium release” for “tritium-release”
Skin fibroblast cultures derived from an apparently normal child (GM05659) were obtained from the Institute for Medical Research, Camden, N.J. The cells were subcultured by trypsinization and used before 25 population doublings. Typically, 4×10^5 cells were seeded onto 100-mm (diameter) plastic petri dishes and allowed to grow in 10 ml of Dulbecco's modified Eagle's minimum essential medium containing 5.6 mM glucose, buffered in pH 7.4 with 24 mM sodium biocarbonate/25 mM Hepes and supplemented with 20% (v/v) calf serum which had been inactivated for 30 min at 56° C. The cells were incubated at 37° C. in a humidified atmosphere of 5% CO2 plus 95% air.
After a week, the medium was replaced with medium supplemented with 0.5% heat-inactivated diaylzed calf serum, and the incubation was continued for 72 h in the presence of minoxidil or one of its structural analogs. The compounds were dissolved in 95% ethanol, except minoxidil sulfate which was dissolved in acetone; the final solvent concentration was 1% (v/v). During the last 3 h of incubation, cells received 100 μM Na L-ascorbate to ensure complete hydroxylation of the polypeptide precursors of precollagen (Murad et al, J. Invest. Dermatol. 75:404 (1980)).
The medium was then removed and the cells were washed twice with a solution containing 0.14 M NaCl, 5 mM KCl, 0.3 mM Na2 PO4, and 0.4 mM KH2 PO4, adjusted to pH 7.4. […] The trypsinization was terminated with 2 vol of 20% serum-supplemented medium, and the cell number in an aliquot of the suspension was determined using a Coulter counter. […]
The protein content of cell extracts was determined by a dye-binding technique using Bio-Rad reagent and protein standard (Bradford, Anal. Biochem. 72:248 (1976)).

lysyl hydroxylase = assay: Lysyl hydroxylase activity in extracts of treated human skin fibroblasts (Example 2, pyridine, triazine and N-alkyl analogs)
Description: Cells were treated for 72 hr with minoxidil or its triazine analog at the indicated concentrations. The enzyme activities in extracts of treated cells were measured by tritium release assays (Murad and Pinnell, J. Biol. Chem. 262:11,973 (1987)) and are expressed as a percentage of zero-concentration values. PH, prolyl hydroxylase; LH, lysyl hydroxylase.
Cells were treated for 72 hr with various concentrations of minoxidil or its N-alkyl analogs as indicated. The enzyme activity in extracts of treated cells was measured by tritium release assays (Murad and Pinnell, J. Biol. Chem. 262:11,973 (1987)) and is expressed as a percentage of zero-concentration value. The minoxidil curve is reproduced from FIG. 4.
Cultures of human skin fibroblast (1.5×10^6 cells) were seeded onto 100-mm plates and incubated at 37° in Dulbecco's modified Eagle's medium supplemented with 20% calf serum. After 24 hr, the medium was replaced with medium supplemented with 0.5% heat-inactivated dialyzed calf serum. The incubation was continued for an additional 72 hr in the presence of 0.1-2 μM minoxidil analogs dissolved in 0.12N HCl; the final concentration of HCl was 0.0012N or 0.0024N. Cells treated with HCl only served as control. During the last 3 hr of incubation, cells received […] ascorbic acid to ensure complete hydroxylation of the polypeptide precursors of procollagen (Murad et al, J. Invest. Dermatol. 75:404 (1980)). At the end of the incubation period, cells were harvested by trypsinization and disrupted by sonication in a buffered medium (Murad et al, J. Biol. Chem. 262:11,973 (1987)).
Lysyl hydroxylase activity in extracts of treated cells was measured with an underhydroxylated procollagen substrate (Murad et al, J. Biol. Chem. 262:11,973 (1987)), which was prepared by labeling cultures of human skin fibroblasts with L-[4,5-^3 H]lysine in the presence of an iron chelator α,α'-dipyridyl (Murad and Pinnell, Conn. Tiss. Res. 13:181 (1985)). The amount of tritium released was quantitated as ^3 HO after vacuum distillation . Prolyl hydroxylase activity was similarly measured with an underhydroxylated procollagen substrate containing L-[4-^3 H]proline (Murad and Pinnell, J. Biol. Chem. 262:11973 (1987); Murad and Pinnell, Conn. Tiss. Res. 13:181 (1985)). The enzyme activities are based on a unit of soluble cell protein. The protein content of cell extracts was determined by a dye-binding techniques using Bio-Rad reagents (Bradford, Anal. Biochem. 72:248 (1976)).
Cells were treated for 72 hr with 1 mM minoxidil or its
structural analogs as indicated. The enzyme activity in extracts
of treated cells was measured by a tritium-release assay and is
expressed as a percentage of HCl-treated control.

[1] = test system: non-proliferating fibroblasts; assay: Cytotoxicity to non-proliferating fibroblasts (cell number per dish); conditions: 5 mM, 72 hr
From the text: Certain aspects of the present invention are described in greater detail in the non-limiting Examples that follow. (See also Murad et al, Arch. Biochem. Biophys. 292:234 (1992)).

`Nc1cc(N2CCCCC2)nc(N)[n+]1[O-]` [Minoxidil] was tested, and the “effect on prolyl hydroxylase activity (in words)” value (prolyl hydroxylase) was “no significant effect on prolyl hydroxylase activity”, the “decrease of the activity of lysyl hydroxylase” value (lysyl hydroxylase; 1 mM, 72 hr) was 73% and the “Lysyl hydroxylase activity (%)” value (lysyl hydroxylase; 1 mM, 72 hr, % of HCl-treated control (Table III)) was 27%. For the same compound, the pIC50 (lysyl hydroxylase; 72 hr (FIG. 4, FIG. 5), read-out: concentration giving 50% inhibition (lysyl hydroxylase)) was 3.70 and the “10^-6 × No. of Cells/Dish” value [1] was 0.49 10^-6 × No. of Cells/Dish.

From US5328913A, “Minoxidil analogs as inhibitors of cell proliferation and lysyl hydroxylase” (priority 1992, dated 1994)
